Experimental data published in the kinase profiling compilation of Christmann-Franck et al. (2016).

Columns and labels:
Test in all cases: radiometric filter-binding kinase assay, Kinase HotSpot
Conditions in all cases: compound 0.5 µM; ATP 10 µM
HIPK2 (human) = HIPK2 (human) (UniProt Q9H2X6)
STK38 (human) = STK38 (human) (UniProt Q15208)
TAOK3 (human) = TAOK3 (human) (UniProt Q9H2K8)
MAPKAPK2 (human) = MAPKAPK2 (human) (UniProt P49137)
STK4 (human) = STK4 (human) (UniProt Q13043)
PTK2B (human) = PTK2B (human) (UniProt Q14289)
STK33 (human) = STK33 (human) (UniProt Q9BYT3)
Sequence of STK33 (human) (Q9BYT3 whole entry, looked up): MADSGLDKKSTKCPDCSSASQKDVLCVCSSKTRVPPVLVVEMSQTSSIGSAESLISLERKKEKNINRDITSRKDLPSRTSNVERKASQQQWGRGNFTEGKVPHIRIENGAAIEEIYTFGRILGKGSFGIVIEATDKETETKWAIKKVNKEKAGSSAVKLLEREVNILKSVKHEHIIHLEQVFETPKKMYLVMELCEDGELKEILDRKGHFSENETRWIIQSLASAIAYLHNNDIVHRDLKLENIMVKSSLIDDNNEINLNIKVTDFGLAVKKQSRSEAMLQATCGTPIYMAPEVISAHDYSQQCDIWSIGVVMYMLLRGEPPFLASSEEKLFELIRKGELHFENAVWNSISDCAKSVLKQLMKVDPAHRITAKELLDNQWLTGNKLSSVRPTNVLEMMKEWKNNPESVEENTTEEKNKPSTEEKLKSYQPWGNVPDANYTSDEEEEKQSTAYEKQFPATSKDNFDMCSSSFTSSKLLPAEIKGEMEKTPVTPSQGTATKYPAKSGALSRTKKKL

TEK (human) = TEK (human) (UniProt Q02763)
CLK1 (human) = CLK1 (human) (UniProt P49759)
HIPK4 (human) = HIPK4 (human) (UniProt Q8NE63)
PRKCE (human) = PRKCE (human) (UniProt Q02156)
MAP3K14 (human) = MAP3K14 (human) (UniProt Q99558)
PAK1 (human) = PAK1 (human) (UniProt Q13153)
[1] = target: TYK2 JH1 catalytic (human) (UniProt P29597)
DAPK1 (human) = DAPK1 (human) (UniProt P53355)
ITK (human) = ITK (human) (UniProt Q08881)
NTRK2 (human) = NTRK2 (human) (UniProt Q16620)
IGF1R (human) = IGF1R (human) (UniProt P08069)
FLT3 (human) = FLT3 (human) (UniProt P36888)
FLT1 (human) = FLT1 (human) (UniProt P17948)
MAP3K9 (human) = MAP3K9 (human) (UniProt P80192)
CDK9 CCNK (human) = CDK9 CCNK (human) (UniProt O75909+P50750)
YES1 (human) = YES1 (human) (UniProt P07947)
AXL (human) = AXL (human) (UniProt P30530)
CAMK1G (human) = CAMK1G (human) (UniProt Q96NX5)
NLK (human) = NLK (human) (UniProt Q9UBE8)
PLK2 (human) = PLK2 (human) (UniProt Q9NYY3)
CDK9 CCNT1 (human) = CDK9 CCNT1 (human) (UniProt P50750+O60563)
SGK3 (human) = SGK3 (human) (UniProt Q96BR1)
ZAP70 (human) = ZAP70 (human) (UniProt P43403)
SYK (human) = SYK (human) (UniProt P43405)
MYO3B (human) = MYO3B (human) (UniProt Q8WXR4)
Sequence of MYO3B (human) (Q8WXR4 whole entry, looked up): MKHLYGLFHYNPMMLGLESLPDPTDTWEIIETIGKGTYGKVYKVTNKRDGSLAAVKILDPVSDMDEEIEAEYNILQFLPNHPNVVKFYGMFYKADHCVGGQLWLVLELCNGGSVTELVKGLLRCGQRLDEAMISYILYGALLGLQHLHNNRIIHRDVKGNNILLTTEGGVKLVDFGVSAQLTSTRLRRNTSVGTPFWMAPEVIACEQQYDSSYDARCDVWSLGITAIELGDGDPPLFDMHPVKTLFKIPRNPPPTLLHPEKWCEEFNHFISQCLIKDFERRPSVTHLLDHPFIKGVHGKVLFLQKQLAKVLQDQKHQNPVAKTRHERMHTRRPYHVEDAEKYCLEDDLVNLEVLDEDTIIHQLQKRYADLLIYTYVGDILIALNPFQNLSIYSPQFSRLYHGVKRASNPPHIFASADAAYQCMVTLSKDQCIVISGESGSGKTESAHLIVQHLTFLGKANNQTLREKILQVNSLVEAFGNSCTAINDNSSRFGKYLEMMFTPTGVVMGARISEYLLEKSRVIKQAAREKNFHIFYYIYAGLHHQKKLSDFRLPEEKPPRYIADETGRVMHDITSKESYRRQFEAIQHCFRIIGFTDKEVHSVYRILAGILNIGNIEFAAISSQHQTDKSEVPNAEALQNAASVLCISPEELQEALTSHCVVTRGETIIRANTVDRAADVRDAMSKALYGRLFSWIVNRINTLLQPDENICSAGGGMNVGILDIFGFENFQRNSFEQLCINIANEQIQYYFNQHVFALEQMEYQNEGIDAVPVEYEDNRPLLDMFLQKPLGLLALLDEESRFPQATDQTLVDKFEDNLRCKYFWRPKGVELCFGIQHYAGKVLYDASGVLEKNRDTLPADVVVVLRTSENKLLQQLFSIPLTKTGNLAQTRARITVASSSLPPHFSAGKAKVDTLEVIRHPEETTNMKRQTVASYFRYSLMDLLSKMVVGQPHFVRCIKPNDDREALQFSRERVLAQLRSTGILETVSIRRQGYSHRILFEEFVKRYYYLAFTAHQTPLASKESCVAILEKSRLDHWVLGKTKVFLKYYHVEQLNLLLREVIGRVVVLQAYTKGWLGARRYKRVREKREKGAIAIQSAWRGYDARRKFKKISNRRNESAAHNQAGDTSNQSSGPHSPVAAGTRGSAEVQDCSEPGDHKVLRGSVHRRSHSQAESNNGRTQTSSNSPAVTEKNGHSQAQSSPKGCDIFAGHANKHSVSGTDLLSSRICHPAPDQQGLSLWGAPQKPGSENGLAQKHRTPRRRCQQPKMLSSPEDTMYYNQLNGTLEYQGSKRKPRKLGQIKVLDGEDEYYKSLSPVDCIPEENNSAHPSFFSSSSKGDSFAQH

CSNK1E (human) = CSNK1E (human) (UniProt P49674)
GSG2 (human) = GSG2 (human) (UniProt Q8TF76)
MAP3K3 (human) = MAP3K3 (human) (UniProt Q99759)
PLK3 (human) = PLK3 (human) (UniProt Q9H4B4)
WNK2 (human) = WNK2 (human) (UniProt Q9Y3S1)
SRPK2 (human) = SRPK2 (human) (UniProt P78362)
Sequence of SRPK2 (human) (P78362 whole entry, looked up): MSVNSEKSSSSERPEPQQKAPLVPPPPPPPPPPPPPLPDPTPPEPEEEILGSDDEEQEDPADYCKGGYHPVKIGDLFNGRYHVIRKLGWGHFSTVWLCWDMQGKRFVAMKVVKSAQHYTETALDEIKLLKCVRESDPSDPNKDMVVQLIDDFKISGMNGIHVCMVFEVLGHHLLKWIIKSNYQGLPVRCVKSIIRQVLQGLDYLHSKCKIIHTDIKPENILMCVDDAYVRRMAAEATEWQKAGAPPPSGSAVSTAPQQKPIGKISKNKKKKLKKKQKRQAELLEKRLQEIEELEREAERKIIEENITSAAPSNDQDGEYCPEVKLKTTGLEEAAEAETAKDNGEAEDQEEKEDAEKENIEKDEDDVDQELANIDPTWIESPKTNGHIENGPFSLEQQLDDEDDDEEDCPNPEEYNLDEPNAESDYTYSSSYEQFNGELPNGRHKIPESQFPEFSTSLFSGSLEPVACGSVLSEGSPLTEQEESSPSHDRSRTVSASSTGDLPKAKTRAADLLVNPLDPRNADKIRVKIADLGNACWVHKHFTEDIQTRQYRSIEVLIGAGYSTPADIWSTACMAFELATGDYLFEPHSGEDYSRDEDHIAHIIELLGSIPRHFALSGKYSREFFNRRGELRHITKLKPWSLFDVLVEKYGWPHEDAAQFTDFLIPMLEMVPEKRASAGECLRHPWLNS

TXK (human) = TXK (human) (UniProt P42681)
MAP3K5 (human) = MAP3K5 (human) (UniProt Q99683)
Sequence of MAP3K5 (human) (Q99683 whole entry, looked up): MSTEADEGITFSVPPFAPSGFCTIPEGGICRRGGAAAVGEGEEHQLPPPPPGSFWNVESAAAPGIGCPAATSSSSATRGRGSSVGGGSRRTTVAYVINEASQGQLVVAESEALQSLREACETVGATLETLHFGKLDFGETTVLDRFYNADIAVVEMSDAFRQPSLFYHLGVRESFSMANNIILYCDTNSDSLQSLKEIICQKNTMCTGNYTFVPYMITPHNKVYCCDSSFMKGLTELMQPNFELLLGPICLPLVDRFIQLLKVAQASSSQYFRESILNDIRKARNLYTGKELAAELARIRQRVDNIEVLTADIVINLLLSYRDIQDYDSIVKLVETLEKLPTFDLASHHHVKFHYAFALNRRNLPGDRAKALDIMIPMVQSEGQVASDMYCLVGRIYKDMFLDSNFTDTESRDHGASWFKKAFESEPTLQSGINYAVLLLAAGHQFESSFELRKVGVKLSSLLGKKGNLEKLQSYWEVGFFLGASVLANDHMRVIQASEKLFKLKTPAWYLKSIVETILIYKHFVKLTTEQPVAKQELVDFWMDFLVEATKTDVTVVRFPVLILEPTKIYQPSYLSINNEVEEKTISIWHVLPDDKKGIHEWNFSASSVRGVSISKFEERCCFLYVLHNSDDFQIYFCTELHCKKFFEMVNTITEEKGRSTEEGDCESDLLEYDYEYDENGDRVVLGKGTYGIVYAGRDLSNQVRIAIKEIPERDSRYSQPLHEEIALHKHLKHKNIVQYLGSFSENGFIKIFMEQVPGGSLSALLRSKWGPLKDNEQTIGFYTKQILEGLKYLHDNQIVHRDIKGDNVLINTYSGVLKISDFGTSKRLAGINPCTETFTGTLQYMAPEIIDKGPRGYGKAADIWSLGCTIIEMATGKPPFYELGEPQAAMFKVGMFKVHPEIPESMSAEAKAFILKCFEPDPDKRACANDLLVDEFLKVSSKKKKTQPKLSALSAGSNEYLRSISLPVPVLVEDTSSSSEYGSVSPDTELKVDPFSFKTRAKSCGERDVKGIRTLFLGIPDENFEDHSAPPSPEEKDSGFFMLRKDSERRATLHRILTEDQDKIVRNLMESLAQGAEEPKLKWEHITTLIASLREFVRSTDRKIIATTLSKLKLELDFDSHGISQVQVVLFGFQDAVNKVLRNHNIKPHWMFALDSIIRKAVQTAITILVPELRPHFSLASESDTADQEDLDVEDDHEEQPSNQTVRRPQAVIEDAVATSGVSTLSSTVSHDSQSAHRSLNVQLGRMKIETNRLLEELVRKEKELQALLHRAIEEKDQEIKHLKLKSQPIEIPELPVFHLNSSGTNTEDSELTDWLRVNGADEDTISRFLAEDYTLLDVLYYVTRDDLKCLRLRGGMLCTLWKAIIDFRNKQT

RPS6KB2 (human) = RPS6KB2 (human) (UniProt Q9UBS0)
Sequence of RPS6KB2 (human) (Q9UBS0 whole entry, looked up): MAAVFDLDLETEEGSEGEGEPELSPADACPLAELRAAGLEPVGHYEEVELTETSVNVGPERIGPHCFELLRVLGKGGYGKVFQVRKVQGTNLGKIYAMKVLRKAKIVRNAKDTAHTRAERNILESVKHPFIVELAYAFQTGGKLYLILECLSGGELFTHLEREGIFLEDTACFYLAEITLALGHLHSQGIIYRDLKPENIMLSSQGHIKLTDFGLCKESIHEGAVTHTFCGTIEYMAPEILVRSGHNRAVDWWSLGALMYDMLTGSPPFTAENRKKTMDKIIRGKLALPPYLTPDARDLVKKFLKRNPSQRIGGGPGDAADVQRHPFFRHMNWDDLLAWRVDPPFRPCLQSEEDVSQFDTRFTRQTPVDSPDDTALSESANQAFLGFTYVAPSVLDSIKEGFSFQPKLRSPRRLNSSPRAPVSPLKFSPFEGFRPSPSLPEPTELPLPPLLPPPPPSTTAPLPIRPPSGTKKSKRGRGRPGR

AURKB (human) = AURKB (human) (UniProt Q96GD4)

Sequence of MAPKAPK2 (human) (P49137 whole entry, looked up): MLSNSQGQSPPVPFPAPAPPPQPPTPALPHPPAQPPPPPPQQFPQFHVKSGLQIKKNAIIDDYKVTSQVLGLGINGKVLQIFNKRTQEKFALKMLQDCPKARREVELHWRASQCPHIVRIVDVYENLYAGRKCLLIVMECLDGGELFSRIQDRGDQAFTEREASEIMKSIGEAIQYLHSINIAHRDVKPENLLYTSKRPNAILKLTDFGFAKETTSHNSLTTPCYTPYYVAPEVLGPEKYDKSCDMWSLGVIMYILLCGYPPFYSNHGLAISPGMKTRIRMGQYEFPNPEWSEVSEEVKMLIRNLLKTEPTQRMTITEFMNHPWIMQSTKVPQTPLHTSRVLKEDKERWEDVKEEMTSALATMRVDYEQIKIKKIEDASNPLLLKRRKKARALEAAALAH

c1ccc(-c2n[nH]cc2-c2ccnc3ccccc23)nc1
residual activity (HIPK2 (human)): 91.3% | residual activity (STK38 (human)): 111% | residual activity (TAOK3 (human)): 92.8% | residual activity (MAPKAPK2 (human)): 100% | residual activity (STK4 (human)): 101% | residual activity (PTK2B (human)): 96.1% | residual activity (STK33 (human)): 92.9% | residual activity (TEK (human)): 98.8% | residual activity (CLK1 (human)): 106% | residual activity (HIPK4 (human)): 89.9% | residual activity (PRKCE (human)): 101% | residual activity (MAP3K14 (human)): 116% | residual activity (PAK1 (human)): 96.3% | residual activity [1]: 101% | residual activity (DAPK1 (human)): 111% | residual activity (ITK (human)): 102% | residual activity (NTRK2 (human)): 112% | residual activity (IGF1R (human)): 102% | residual activity (FLT3 (human)): 91.2% | residual activity (FLT1 (human)): 81.4% | residual activity (MAP3K9 (human)): 90.4% | residual activity (CDK9 CCNK (human)): 98.7% | residual activity (YES1 (human)): 93.3% | residual activity (AXL (human)): 101% | residual activity (CAMK1G (human)): 102% | residual activity (NLK (human)): 79.8% | residual activity (PLK2 (human)): 98.9% | residual activity (CDK9 CCNT1 (human)): 80% | residual activity (SGK3 (human)): 97.4% | residual activity (ZAP70 (human)): 100% | residual activity (SYK (human)): 99.7% | residual activity (MYO3B (human)): 91.7% | residual activity (CSNK1E (human)): 53.9% | residual activity (GSG2 (human)): 90.8% | residual activity (MAP3K3 (human)): 79.4% | residual activity (PLK3 (human)): 91.7% | residual activity (WNK2 (human)): 49.2% | residual activity (SRPK2 (human)): 97.2% | residual activity (TXK (human)): 89.1% | residual activity (MAP3K5 (human)): 105% | residual activity (RPS6KB2 (human)): 101% | residual activity (AURKB (human)): 96%

CCC(=O)Nc1ccc2ncnc(Nc3cccc(Br)c3)c2c1
residual activity (HIPK2 (human)): 97% | residual activity (STK38 (human)): 100% | residual activity (TAOK3 (human)): 89.2% | residual activity (MAPKAPK2 (human)): 87.1% | residual activity (STK4 (human)): 97.1% | residual activity (PTK2B (human)): 99% | residual activity (STK33 (human)): 94.1% | residual activity (TEK (human)): 91.2% | residual activity (CLK1 (human)): 84.5% | residual activity (HIPK4 (human)): 87.8% | residual activity (PRKCE (human)): 99.7% | residual activity (MAP3K14 (human)): 116% | residual activity (PAK1 (human)): 96.3% | residual activity [1]: 90.2% | residual activity (DAPK1 (human)): 99.4% | residual activity (ITK (human)): 89.7% | residual activity (NTRK2 (human)): 77.1% | residual activity (IGF1R (human)): 87.6% | residual activity (FLT3 (human)): 94.1% | residual activity (FLT1 (human)): 86.9% | residual activity (MAP3K9 (human)): 92.7% | residual activity (CDK9 CCNK (human)): 94.1% | residual activity (YES1 (human)): 87% | residual activity (AXL (human)): 126% | residual activity (CAMK1G (human)): 92.1% | residual activity (NLK (human)): 95.9% | residual activity (PLK2 (human)): 108% | residual activity (CDK9 CCNT1 (human)): 93.7% | residual activity (SGK3 (human)): 92.8% | residual activity (ZAP70 (human)): 113% | residual activity (SYK (human)): 94.3% | residual activity (MYO3B (human)): 135% | residual activity (CSNK1E (human)): 98.2% | residual activity (GSG2 (human)): 95.2% | residual activity (MAP3K3 (human)): 89.8% | residual activity (PLK3 (human)): 93.2% | residual activity (WNK2 (human)): 107% | residual activity (SRPK2 (human)): 88.6% | residual activity (TXK (human)): 90.5% | residual activity (MAP3K5 (human)): 102% | residual activity (RPS6KB2 (human)): 94.9% | residual activity (AURKB (human)): 95.4%

Nc1ncnc2[nH]nc(Nc3ccc(F)cc3)c12
residual activity (HIPK2 (human)): 106% | residual activity (STK38 (human)): 101% | residual activity (TAOK3 (human)): 92.4% | residual activity (MAPKAPK2 (human)): 105% | residual activity (STK4 (human)): 90.4% | residual activity (PTK2B (human)): 101% | residual activity (STK33 (human)): 94.3% | residual activity (TEK (human)): 94.9% | residual activity (CLK1 (human)): 102% | residual activity (HIPK4 (human)): 98.5% | residual activity (PRKCE (human)): 99.5% | residual activity (MAP3K14 (human)): 111% | residual activity (PAK1 (human)): 95.2% | residual activity [1]: 92.3% | residual activity (DAPK1 (human)): 116% | residual activity (ITK (human)): 93.9% | residual activity (NTRK2 (human)): 101% | residual activity (IGF1R (human)): 104% | residual activity (FLT3 (human)): 78.3% | residual activity (FLT1 (human)): 87.3% | residual activity (MAP3K9 (human)): 100% | residual activity (CDK9 CCNK (human)): 92.4% | residual activity (YES1 (human)): 92.9% | residual activity (AXL (human)): 45.4% | residual activity (CAMK1G (human)): 97.2% | residual activity (NLK (human)): 95.4% | residual activity (PLK2 (human)): 101% | residual activity (CDK9 CCNT1 (human)): 99.1% | residual activity (SGK3 (human)): 102% | residual activity (ZAP70 (human)): 95.2% | residual activity (SYK (human)): 97.4% | residual activity (MYO3B (human)): 87.9% | residual activity (CSNK1E (human)): 80.5% | residual activity (GSG2 (human)): 87.7% | residual activity (MAP3K3 (human)): 87.6% | residual activity (PLK3 (human)): 98% | residual activity (WNK2 (human)): 110% | residual activity (SRPK2 (human)): 97.1% | residual activity (TXK (human)): 67.6% | residual activity (MAP3K5 (human)): 111% | residual activity (RPS6KB2 (human)): 96.8% | residual activity (AURKB (human)): 96.9%
